Experimental data: article PMC8698959, “A Combination of Structural, Genetic, Phenotypic and Enzymatic Analyses Reveals the Importance of a Predicted Fucosyltransferase to Protein O-Glycosylation in the Bacteroidetes” (Biomolecules, 2021)

What was measured:
[1] = target: T1, rBF4306 (FucT) (Bacteroides fragilis, UniProt Q5L7H9); assay: TLC and ESI-MS of fucosylated product; format: biochemical; conditions: 5 mM MgCl2, 5 mM MnCl2, pH 7.4, 37 °C, overnight
T1 construct: gene BF9343_4192; tag kept; partly degraded
T1 sequence (Q5L7H9 entry or part of it): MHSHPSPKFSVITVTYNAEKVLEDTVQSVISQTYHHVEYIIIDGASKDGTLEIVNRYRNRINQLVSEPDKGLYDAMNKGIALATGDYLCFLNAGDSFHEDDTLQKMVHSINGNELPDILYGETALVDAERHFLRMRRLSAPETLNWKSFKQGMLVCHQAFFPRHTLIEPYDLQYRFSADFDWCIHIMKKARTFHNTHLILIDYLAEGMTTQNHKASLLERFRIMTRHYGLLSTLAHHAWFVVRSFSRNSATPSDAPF
Excerpt: (§1) All three enzymes transferred L-Fuc to pNP-α-Gal

[2] = target: T2, rPhep_4048 (FucT) (Pedobacter heparinus, UniProt C6XWF0); assay: TLC and ESI-MS of fucosylated product; format: biochemical; conditions: donor; acceptor pNP-α-D-Gal 8 mM, 5 mM MgCl2, 5 mM MnCl2, pH 7.4, 37 °C, overnight
T2 construct: gene Phep_4048; tag kept; partly degraded
T2 sequence (C6XWF0 1-252): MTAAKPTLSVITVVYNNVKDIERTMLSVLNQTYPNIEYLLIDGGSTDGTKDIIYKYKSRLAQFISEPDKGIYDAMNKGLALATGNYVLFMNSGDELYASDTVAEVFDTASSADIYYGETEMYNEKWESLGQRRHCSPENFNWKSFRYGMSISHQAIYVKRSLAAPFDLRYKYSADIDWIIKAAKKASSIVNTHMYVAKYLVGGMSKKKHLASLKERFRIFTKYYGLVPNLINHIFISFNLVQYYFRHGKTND
Excerpt: as §1

| Structure (SMILES) | TLC and ESI-MS of fucosylated product ([1]; 2 mM GDP-L-Fuc, 8 mM acceptor) | TLC and ESI-MS of fucosylated product ([1]; donor, acceptor pNP-α-D-Glc 8 mM) | TLC and ESI-MS of fucosylated product [2] |
| --- | --- | --- | --- |
| O=[N+]([O-])c1ccc(O[C@H]2O[C@H](CO)[C@@H](O)[C@H](O)[C@H]2O)cc1 [pNP-α-D-Glc] | rBF4306 demonstrated very low activity with all substrates; pNP-α-Glc was the best substrate | – | – |
| C[C@@H]1O[C@H](OP(=O)(O)OP(=O)(O)OC[C@H]2O[C@@H](n3cnc4c(=O)[nH]c(N)nc43)[C@H](O)[C@@H]2O)[C@@H](O)[C@H](O)[C@@H]1O [GDP-L-Fuc] | – | with GDP-L-Fuc serving as the Fuc donor. All three enzymes transferred L-Fuc to pNP-α-Gal | with GDP-L-Fuc serving as the Fuc donor. All three enzymes transferred L-Fuc to pNP-α-Gal |
